Results published in US20260097022A1, “COMPOUNDS AND USES THEREOF” (Integrated Biosciences, Inc., priority 2023, published 2026).

Tests used:
[1] = system: late-passage IMR-90 cells; experiment: Replicative senescence model, resazurin cell viability; type: cell-based, human; settings: early- versus late-passage IMR-90 cells
Procedure: Cell culture. Human lung fibroblast (IMR-90) cells were obtained from ATCC (CCL-186) and passaged less than 10 times (less than 30 population doublings) for all experiments described in this example, with the exception of high-passage cells used in the model of replicative senescence (see the section on Replicative senescence below). Cells were cultured in growth media comprising Eagle's Minimum Essential Medium (EMEM: ATCC 30-2003) supplemented with 10% fetal bovine serum (FBS: Thermo Fisher 16140071) and 1% penicillin-streptomycin (Thermo Fisher 15070063). Cells were incubated in a humidity-controlled incubator at 37° C., with 5% CO2. Cells were detached using trypsin-EDTA (0.05%; Gibco 25300120).
Cells were then plated as described below.
Chemical screening. For all screening experiments. 99 μL of cells were plated into each well of a 96-well clear flat-bottom, black polystyrene tissue-culture-treated plate (Corning 3904) at a density of ˜10+ cells/well. Plates were incubated overnight for adhesion. The day after plating. […] After an additional 1 day of incubation, the fluorescence excitation/emission at 550/590 nm was read using a SpectraMaxR M3 plate reader and manufacturer software (SoftMax Pro R 6). […]
Calculation of cellular viability values in dose-response curves. […] For each sample, the fluorescence intensity value was normalized by the mean of two untreated control values. […]

HEK293 cells = experiment: Cytotoxicity against HEK293 cells (resazurin); type: cell-based, human; settings: 3 days treatment, curve-fitting, two biological replicates
Procedure: Measuring cytotoxicity against HepG2 and HEK293 cells. Cytotoxicity in human embryonic kidney (HEK293) and liver carcinoma (HepG2) cells was assayed as above using a resazurin assay. Cells were obtained from ATCC (ATCC CRL-1573 and HB-8065), passaged <10 times, and grown in Dulbecco's modification of Eagle's Medium (DMEM: Corning 10^−013-CV) supplemented with 10% FBS and 1% penicillin-streptomycin. 99 μL of cells were plated into each well of a 96-well clear flat-bottom, black polystyrene tissue-culture-treated plate at a density of ˜10+ cells/well, and plates were incubated overnight for adhesion. The day after plating. 1 μL of each compound, prepared as two-fold serial dilutions of 5 mM stock solutions in DMSO, was added to each well. Cells were incubated for 3 days, after which resazurin was added to each well to a final concentration of 0.15 mM. After an additional 1 day of incubation, the fluorescence excitation/emission at 550/590 nm was read using a SpectraMax M3 plate reader. Experiments were performed in biological duplicate. IC50 values were determined by normalizing with respect to the fluorescence intensity values of untreated control cells on day 3, as described in Calculation of cellular viability values in dose-response curves above.

human red blood cells = experiment: Hemolysis assay; type: cell-based; settings: up to a final concentration of 100 μM; 1 h at 37° C.
Procedure: Hemolysis assay. Whole human blood containing EDTA (Innovative Resarch IWB1K2E) was centrifuged at 120×g at 4° C., for 5 min and resuspended in Dulbecco's PBS (DPBS: VWR 02-0119-0500). These washing steps were repeated until the supernatant was clear. Red blood cells were then resuspended in DPBS to 5×10^8 cells/mL, and 100 μL of cells was plated into each well of a 96-well clear round-bottom plate. Compounds were added to the indicated concentrations, and DMSO was used as a vehicle. Samples were incubated for 1 h at 37° C., without shaking, after which plates were centrifuged at 1500×g at room temperature for 5 min to pellet cells. 60 μL of the supernatant from each sample was then transferred to a 96-well clear flat-bottom plate, and the absorbance was read at 405 nm using a SpectraMax M3 plate reader to quantify the amount of soluble hemoglobin. Fractional hemolysis was determined by linearly interpolating absorbance values with respect to a positive control (saturation with 10% Triton X-100) and a negative control (1% DMSO vehicle). Results are depicted in FIG. 14.

[2] = system: Salmonella typhimurium TA100; experiment: Genotoxicity assay (Ames 384-ISO test); type: cell-based; settings: 100 μM
Procedure: Genotoxicity assay. An Ames 384-ISO test (6041-1S) from Environmental Bio-Detection Products, Inc, was used following the manufacturer's instructions. Briefly. Salmonella typhimurium TA100 was grown overnight (16-18 h) at 37° C., with shaking at 300 rpm and treated with the provided exposure media and compound samples at the final concentrations indicated. Treatment with the provided 4-nitroquinoline 1-oxide (4NQO), a mutagen, was used as a positive control. Cells were then added to the provided reversion solution, and each sample was split into 48 wells of 384-well plates. Plates were incubated at 37° C., for 2 days, after which the number of revertant (yellow-colored) wells corresponding to each sample was counted. […] An overnight bacterial culture was diluted 1:10.000 in LB medium (Becton Dickinson 244620) and plated using 99 μL working volumes into the wells of a clear flat-bottom 96-well plate. One μL of two-fold dilutions of each test compound in DMSO, starting from a final concentration of 500 μM, was added across wells, and plates were sealed and incubated overnight at 37° C., to determine bacterial growth.

Bcl-XL = Bcl-XL (Homo sapiens, UniProt Q07817); experiment: Bcl-XL TR-FRET; type: binding
BRD4 = BRD4 (Homo sapiens, UniProt O60885); experiment: BRD4 inhibition; type: biochemical
Mcl-1 = Mcl-1 (Homo sapiens, UniProt Q07820); experiment: Mcl-1 TR-FRET; type: binding
Chain of Mcl-1 (Q07820 whole entry, species assumed): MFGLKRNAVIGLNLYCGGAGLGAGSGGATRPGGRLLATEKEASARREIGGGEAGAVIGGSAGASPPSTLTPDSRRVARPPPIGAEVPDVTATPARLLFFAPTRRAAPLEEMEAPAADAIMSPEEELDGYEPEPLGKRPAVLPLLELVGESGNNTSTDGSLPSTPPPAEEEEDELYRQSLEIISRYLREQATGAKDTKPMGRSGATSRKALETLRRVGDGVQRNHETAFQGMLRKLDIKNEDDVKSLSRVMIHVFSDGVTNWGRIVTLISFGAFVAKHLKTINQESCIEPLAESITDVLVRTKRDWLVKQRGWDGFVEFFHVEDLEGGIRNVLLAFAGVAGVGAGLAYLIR

Chain of Bcl-XL (Q07817 whole entry): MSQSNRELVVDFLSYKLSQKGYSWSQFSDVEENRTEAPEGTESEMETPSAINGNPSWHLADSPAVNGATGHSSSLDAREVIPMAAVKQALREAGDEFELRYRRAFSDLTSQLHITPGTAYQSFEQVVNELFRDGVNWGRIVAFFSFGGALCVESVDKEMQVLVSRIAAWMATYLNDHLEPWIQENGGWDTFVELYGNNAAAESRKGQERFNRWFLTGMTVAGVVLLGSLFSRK

Which results are given for `Cc1ccccc1C(=O)Nc1ccc2nc(SCC(=O)Nc3ccccc3)sc2c1` [compound 19]?
selectivity against late-passage Sncs compared with ABT-737 [1]: less; IC50 (HEK293 cells; Homo sapiens, HEK293, 72 h): 160 µM; hemolysis (human red blood cells): did not induce significant hemolysis; reversion of bacterial cultures (mutagenic potential) [2]: did not induce significant reversion

For `O=C(Nc1ccc(S(=O)(=O)Nc2ncccn2)cc1)c1ccc(-c2ccccc2)cc1` [BRD-K20733377], which “selectivity against late-passage Sncs compared with ABT-737” value [1] is on record?
The value was “similarly selective”.

And the IC50 (HEK293 cells)?
The IC50 was 51.1 µM.

What about the hemolysis (human red blood cells) of the same compound?
The hemolysis was “did not induce significant hemolysis”.

And the “reversion of bacterial cultures (mutagenic potential)” value [2]?
Its value is “did not induce significant reversion”.

What about the IC50 (Bcl-XL) of the same compound?
Its IC50 is roughly 1 µM.

What about the IC50 (BRD4) of the same compound?
Its IC50 is roughly 10 µM.

How did the IC50 (HEK293 cells; Homo sapiens, HEK293, 72 h) turn out when `COc1ccc(C(=O)Nc2ccc3nc(SCC(=O)Nc4ccccc4F)sc3c2)cc1OC` [compound 6] was run?
The IC50 was 21.4 µM.

What about the hemolysis (human red blood cells) of the same compound?
The hemolysis was “did not induce significant hemolysis”.

What about the “reversion of bacterial cultures (mutagenic potential)” value [2] of the same compound?
Its value is “did not induce significant reversion”.

And the IC50 (Mcl-1)?
Its IC50 is no less than 100 µM.
